Measurements: US20220380341A1, “INHIBITORS OF HIV-1 NEF FOR THE TREATMENT OF HIV DISEASE” (priority 2018, published 2022)
Read-outs that look alike come from different tables or passages of the source.

Key:
[1] = tested on: HIV-1NL4-3; experiment: HIV-1 infectivity assay in TZM-bl reporter cell line (LTR-luciferase, 48 h); assay type: cell-based; settings: Human immunodeficiency virus 1, TZM-bl
Procedure, shortened: (§1)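 Read-out is luciferase from an integrated HIV-1 LTR reporter in TZM-bl cells, 48 h after HIV-1NL4-3 infection in the presence of 1 μM compound. Scale set by DMSO-treated wild-type-infected cells (0%) and Nef-defective virus (100% Nef-dependent effect). Cell Titer Blue measures cytotoxicity without virus.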

[2] = tested on: TZM-bl cell line; assay type: cell-based; settings: human, 1 μM
Procedure, shortened: as §1

[3] = molecular target: HIV-1 NefNL4-3 (Human immunodeficiency virus type 1 group M subtype B, UniProt P03406, A33V/T15A/T51N/V11I); experiment: Surface plasmon resonance binding to recombinant full-length Nef (NL4-3); settings: for RU30/RUNef (extent of binding): response units at 30 μM relative to Nef immobilized on the SPR chip; for Nef NL4-3 Binding, SPR 1:1 or 2-site fitting KD1: 1:1 Langmuir fit where the KD2 cell says '1 to 1 fitting', else 2-site fit
[4] = 1.0 μM, TZM-bl reporter cell line, Table 4, read-out: % Infectivity Inhibition
[5] = 48 h, Table 1, TZM-bl cells, 1 μM, 48 h, 100% = Nef-defective HIV-1, read-out: HIV-1 Infectivity % Inhibition Norm. to Δ-Nef @ 1 μM
[6] = KD, M, Table 4, SPR fit 2-step induced fit, KD = koff/kon × koff2/(koff2 + kon2)
[7] = Nef NL4-3 Binding, SPR 2-state fitting KD, Table 1, 2-step induced-fit model
[8] = Table 4, 2-step induced fit, T = 1/koff2
[9] = read-out: Nef NL4-3 Binding, SPR 1:1 or 2-site fitting KD2, Table 1, 2-site fit, second component
[10] = KD, M, Table 4, SPR fit 1:1 Langmuir, KD = koff/kon
[11] = Table 4, 1:1 Langmuir fit, T = 1/koff

SMILES	inhibition at 1 µM [1, 4] [%]	inhibition at 1 µM [1, 5] [%]	% Cell Viability [2] [%]	Percent Viability @ 1 μM (TZM-bl cells) [2] [%]	Kd [3] [nM]	Kd [3, 6] [nM]	Kd [3, 7] [nM]	T, minutes (residence time) [3, 8]	Kd [3, 9] [nM]	RU30/RUNef (extent of binding) [3]	Kd [3, 10] [nM]	T, minutes (residence time) [3, 11]	Nef NL4-3 Binding, SPR 1:1 or 2-site fitting KD1 ([3]; Table 1)	inhibition at 1 µM ([1]; 48 h, Table 2, TZM-bl cells, 1 μM, 48 h, 100% = Nef-defective HIV-1, read-out: HIV-1 Infectivity % Inhibition Norm. to Δ-Nef @ 1 μM) [%]	Nef NL4-3 Binding, SPR 1:1 or 2-site fitting KD1 ([3]; Table 2)
CC(=O)N1CCC(c2nn(-c3nc4ccccc4[nH]3)c(O)c2Cc2ccc(F)c(F)c2)CC1 [Compound I-744, 1-{4-[1-(1H-1,3-benzodiazol-2-yl)-4-[(3,4-difluorophenyl)methyl]-5-hydroxy-1H-pyrazol-3-yl]piperidin-1-yl}ethan-1-one]	51.2	51.2	98.2	98.2	23.5	1950	1950	5.61E + 00 minutes	7280	4.92E- 03	–	–	–	–	–
Oc1c(CCn2cc(Cl)cn2)c(-c2ccc(C(F)(F)F)cc2)nn1-c1nc2ccccc2[nH]1 [Compound I-143, 1-(1H-1,3-benzodiazol-2-yl)-4-[2-(4-chloro-1H-pyrazol-1-yl)ethyl]-3-[4-(trifluoromethyl)phenyl]-1H-pyrazol-5-ol]	0	-19.6	98.9	98.9	426	–	–	–	–	1.02E- 03	426	1.75E + 01 minutes	–	–	–
CS(=O)(=O)N1CCC(Cc2nn(-c3nc4ccccc4[nH]3)c(O)c2CCc2ccc(F)cc2)CC1 [Compound I-771, 1-(1H-1,3-benzodiazol-2-yl)-4-[2-(4-fluorophenyl)ethyl]-3-[(1-methanesulfonylpiperidin-4-yl)methyl]-1H-pyrazol-5-ol]	–	13.1	–	100.1	965	–	–	–	–	–	–	–	–	–	–
CS(=O)(=O)N1CCC(CCc2c(-c3ccc(C(F)(F)F)cn3)nn(-c3nc4ccccc4[nH]3)c2O)CC1 [Compound I-716]	22.8	22.8	97.1	97.1	1970	4370	4370	3.22E + 00 minutes	–	5.13E- 03	–	–	–	–	–
Cc1ccc(-c2nn(-c3nc4ccccc4[nH]3)c(O)c2CCc2ccc(F)cc2)cn1 [Compound I-140, 1-(1H-1,3-benzodiazol-2-yl)-4-[2-(4-fluorophenyl)ethyl]-3-(6-methylpyridin-3-yl)-1H-pyrazol-5-ol]	–	57.3	–	98.3	915	–	–	–	–	–	–	–	–	–	–
Oc1c(CC2CCOCC2)c(CCC2CCOCC2)nn1-c1nc2ccccc2[nH]1 [Compound I-178, 1-(1H-1,3-benzodiazol-2-yl)-3-[2-(oxan-4-yl)ethyl]-4-[(oxan-4-yl)methyl]-1H-pyrazol-5-ol]	0	–	97.9	–	–	10900	–	7.72E + 00 minutes	–	8.86E- 03	–	–	–	–	–
Oc1c(CCn2nccn2)c(-c2ccc(C(F)(F)F)cc2)nn1-c1nc2ccccc2[nH]1 [Compound I-141, 1-(1H-1,3-benzodiazol-2-yl)-4-[2-(2H-1,2,3-triazol-2-yl)ethyl]-3-[4-(trifluoromethyl)phenyl]-1H-pyrazol-5-ol]	–	8.7	–	99.5	–	–	–	–	–	–	–	–	No Interaction	–	–
Oc1c(CCC2CCNCC2)c(C2CC2)nn1-c1nc2cc(Cl)ccc2[nH]1 [Compound I-554, 1-(5-chloro-1H-1,3-benzodiazol-2-yl)-3-cyclopropyl-4-[2-(piperidin-4-yl)ethyl]-1H-pyrazol-5-ol]	12.2	12.2	95.0	95.0	56.2	0.00315	0.00315	3.33E + 06 minutes	2130	3.65E- 02	–	–	–	–	–
O=C(c1cccc(O)n1)N1CCC(c2nn(-c3nc4ccccc4[nH]3)c(O)c2CCc2ccc(F)cc2)CC1 [Compound I-731, 6-{4-[1-(1H-1,3-benzodiazol-2-yl)-4-[2-(4-fluorophenyl)ethyl]-5-hydroxy-1H-pyrazol-3-yl]piperidine-1-carbonyl}pyridin-2-ol]	–	11.5	–	98.9	–	–	–	–	–	–	–	–	No Interaction	–	–
Oc1c(CCc2ccccn2)c(-c2ccc(C(F)(F)F)cn2)nn1-c1nc2ccccc2[nH]1 [Compound I-146, 1-(1H-1,3-benzodiazol-2-yl)-4-[2-(pyridin-2-yl)ethyl]-3-[5-(trifluoromethyl)pyridin-2-yl]-1H-pyrazol-5-ol]	5.7	5.7	98.5	98.5	1650	–	–	–	–	6.42E- 04	1650	3.67E + 00 minutes	–	–	–
CC(C)(C)OC(=O)N1CCN(Cc2nn(-c3nc4ccccc4[nH]3)c(O)c2CCc2ccc(F)cc2)CC1 [Compound I-211, tert-butyl 4-{[1-(1H-1,3-benzodiazol-2-yl)-4-[2-(4-fluorophenyl)ethyl]-5-hydroxy-1H-pyrazol-3-yl]methyl}piperazine-1-carboxylate]	0	-19.4	100	103.5	7220	–	–	–	–	2.89E- 03	7220	1.65E + 00 minutes	–	–	–
O=C1NC(=O)C(CC(=O)N2CCC(c3nn(-c4nc5ccccc5[nH]4)c(O)c3CCc3ccc(F)cc3)CC2)N1 (stereo not drawn) [Compound I-738, 5-(2-{4-[1-(1H-1,3-benzodiazol-2-yl)-4-[2-(4-fluorophenyl)ethyl]-5-hydroxy-1H-pyrazol-3-yl]piperidin-1-yl}-2-oxoethyl)imidazolidine-2,4-dione]	–	-9.9	–	100.4	–	–	–	–	–	–	–	–	No Interaction	–	–
Oc1c(CCc2ccc(F)cc2)c(-c2ccc(C(F)(F)F)cn2)nn1-c1nc2cccnc2[nH]1 [Compound I-302, 4-[2-(4-fluorophenyl)ethyl]-1-{3H-imidazo[4,5-b]pyridin-2-yl}-3-[5-(trifluoromethyl)pyridin-2-yl]-1H-pyrazol-5-ol]	0	-2.4	98.9	98.9	3610	–	–	–	–	1.66E- 03	3610	8.82E + 00 minutes	–	–	–
Oc1c(CCc2ccc(F)cc2)c(C2CCN(Cc3ccncc3)CC2)nn1-c1nc2ccccc2[nH]1 [Compound I-804, 1-(1H-1,3-benzodiazol-2-yl)-4-[2-(4-fluorophenyl)ethyl]-3-{1-[(pyridin-4-yl)methyl]piperidin-4-yl}-1H-pyrazol-5-ol]	–	50	–	97.5	90.8	–	–	–	–	–	–	–	–	–	–
Oc1c(CCc2ccc(F)cc2)c(-c2ccc(C(F)(F)F)cn2)nn1-c1cc(C(F)(F)F)n[nH]1 [Compound I-602, 4-[2-(4-fluorophenyl)ethyl]-5′-(trifluoromethyl)-3-[5-(trifluoromethyl)pyridin-2-yl]-2′H-[1,3′-bipyrazol]-5-ol]	–	–	–	97.2	–	–	–	–	–	–	–	–	–	73.8	No interaction
Oc1c(CCc2ccc(F)cc2)c(CC2CCN(Cc3ccncc3)CC2)nn1-c1nc2ccccc2[nH]1 [Compound I-809, 1-(1H-1,3-benzodiazol-2-yl)-4-[2-(4-fluorophenyl)ethyl]-3-({1-[(pyridin-4-yl)methyl]piperidin-4-yl}methyl)-1H-pyrazol-5-ol]	–	14.1	–	97.9	2740	–	–	–	–	–	–	–	–	–	–
